From patent publication US11324724B2, “N-(2,2-difluoroethyl)-N-[(pyrimidinylamino)propanyl]arylcarboxamides” (Boehringer Ingelheim International GmbH, priority 2017, dated 2022)

Experiments:
human MDR1 P-gp = assay: Assay D: efflux in MDCK cells transfected with the human MDR1 gene; assay type: in vitro ADME, canine; conditions: dog; MDCK-MDR1, pH 7.4, 37° C.; read-out: Assay D: MDCK efflux ratio (BA/AB)
Protocol: The MDCK assay provides information on the potential of a compound to pass the blood brain barrier. Permeability measurements across polarized, confluent MDCK-MDR1 cell monolayers grown on permeable filter supports are used as an in vitro absorption model: apparent permeability coefficients (PE) of the compounds across the MDCK-MDR1 cell monolayers are measured (pH 7.4, 37° C.) in apical-to-basal (AB) and basal-to-apical (BA) transport direction.
The AB permeability (PEAB) represents drug absorption from the blood into the brain and the BA permeability (PEBA) drug efflux from the brain back into the blood via both, passive permeability as well as active transport mechanisms mediated by efflux and uptake transporters that are expressed on the MDCK-MDR1 cells, predominantly by the overexpressed human MDR1 P-gp. Identical or similar permeabilities in both transport directions indicate passive permeation, vectorial permeability points to additional active transport mechanisms. Higher PEBA than PEAB (PEBA/PEAB>5) indicates the involvement of active efflux mediated by MDR1 P-gp, which might compromises the goal to achieve sufficient brain exposure. Therefore this assay provides valuable support for selection of compounds applicable for further in vivo testing. High permeability not limited by efflux at the blood brain barrier is a favourable characteristic for compounds that are to be used for drugs acting primarily in the CNS
D. Assessment of Efflux in Madin-Darby Canine Kidney (MDCK) Cells Transfected with the Human MDR1 Gene
Apparent permeability coefficients (PE) of the compounds across the MDCK-MDR1 cell monolayers are measured (pH 7.4, 37° C.) in apical-to-basal (AB) and basal-to-apical (BA) transport direction. AB permeability (PEAB) represents drug absorption from the blood into the brain and BA permeability (PEBA) drug efflux from the brain back into the blood via both passive permeability as well as active transport mechanisms mediated by efflux and uptake transporters that are expressed on the MDCK-MDR1 cells, predominantly by the overexpressed human MDR1 P-gp. The compounds are assigned to permeability/absorption classes by comparison of the AB permeabilities with the AB permeabilities of reference compounds with known in vitro permeability and oral absorption in the human. Identical or similar permeabilities in both transport directions indicate passive permeation, vectorial permeability points to additional active transport mechanisms. Higher PEBA than PEAB indicates the involvement of active efflux mediated by MDR1 P-gp. Active transport is concentration-dependently saturable.
MDCK-MDR1 cells (1-2×10 e5 cells/1 cm2 area) are seeded on filter inserts (Costar transwell polycarbonate or PET filters, 0.4 μm pore size) and cultured (DMEM) for 7 days. Subsequently, the MDR1 expression is boosted by culturing the cells with 5 mM sodium butyrate in full medium for 2 days. Compounds are dissolved in appropriate solvent (like DMSO, 1-20 mM stock solutions). Stock solutions are diluted with HTP-4 buffer (128.13 mM NaCl, 5.36 mM KCl, 1 mM MgSO4, 1.8 mM CaCl2, 4.17 mM NaHCO3, 1.19 mM Na2HPO4×7H2O, 0.41 mM NaH2PO4×H2O, 15 mM HEPES, 20 mM glucose, 0.25% BSA, pH 7.4) to prepare the transport solutions (0.1-300 μM compound, final DMSO<=0.5%). The transport solution (TL) is applied to the apical or basolateral donor side for measuring A-B or B-A permeability (3 filter replicates), respectively. The receiver side contains the same buffer as the donor side. Samples are collected at the start and end of experiment from the donor and at various time intervals for up to 2 hours also from the receiver side for concentration measurement by HPLC-MS/MS or scintillation counting. Sampled receiver volumes are replaced with fresh receiver solution.

OX2R = biological target: T1, OX2R (Homo sapiens, UniProt O43614); conditions: cited from earlier work
T1 sequence (O43614 1-444): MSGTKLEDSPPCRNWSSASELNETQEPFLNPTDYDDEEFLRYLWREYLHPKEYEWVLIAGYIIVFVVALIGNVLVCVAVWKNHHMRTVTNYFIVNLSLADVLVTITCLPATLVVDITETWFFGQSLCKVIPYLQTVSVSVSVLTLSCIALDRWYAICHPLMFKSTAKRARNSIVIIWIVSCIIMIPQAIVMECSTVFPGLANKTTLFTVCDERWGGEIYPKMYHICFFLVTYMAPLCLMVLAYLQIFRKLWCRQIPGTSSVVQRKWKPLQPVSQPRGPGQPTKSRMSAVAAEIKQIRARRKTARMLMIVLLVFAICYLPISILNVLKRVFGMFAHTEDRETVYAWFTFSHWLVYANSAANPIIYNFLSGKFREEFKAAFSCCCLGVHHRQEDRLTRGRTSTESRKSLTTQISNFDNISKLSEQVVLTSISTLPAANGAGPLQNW

[1] = Assay C: metabolic stability in human liver microsomes (Human MST); assay type: in vitro ADME; conditions: pH 7.6, pooled human liver microsomes, 37° C., read-out: Assay C: Human MST t1/2
Protocol: C. Assessment of Metabolic Stability in Human Liver Microsomes (Human MST)
The metabolic stability of the compounds according to the invention may be investigated as follows:
The metabolic degradation of the test compound is assayed at 37° C. with pooled human liver microsomes. The final incubation volume of 100 μL per time point contains TRIS buffer pH 7.6 at room temperature (0.1 M), MgCl2 (5 mM), microsomal protein (1 mg/mL) and the test compound at a final concentration of 1 μM. Following a short pre-incubation period at 37° C., the reactions are initiated by addition of beta-nicotinamide adenine dinucleotide phosphate, reduced form (NADPH, 1 mM), and terminated by transferring an aliquot into solvent after different time points. After centrifugation (10000 g, 5 min), an aliquot of the supernatant is assayed by LC-MS/MS for the amount of parent compound. The half-life (t1/2) is determined by the slope of the semi-logarithmic plot of the concentration-time profile.

human Orexin 1 receptor = biological target: T2, human Orexin 1 receptor (Homo sapiens, UniProt O43613); assay: Assay A: in vitro testing of OX1R potency, OX1R IP1; assay type: cell-based; conditions: for Kb: 0.5 nM Orexin A concentration; for OX2R Kb/OX1R Kb: selectivity ratio of Assay B and Assay A Kb
T2 construct: stably expressing the full-length human Orexin 1 receptor; expressed in transfected cells; host or cells: CHO-K1 (CHO-K1/hOx1), co-expressing aequorin
T2 sequence (O43613 1-425): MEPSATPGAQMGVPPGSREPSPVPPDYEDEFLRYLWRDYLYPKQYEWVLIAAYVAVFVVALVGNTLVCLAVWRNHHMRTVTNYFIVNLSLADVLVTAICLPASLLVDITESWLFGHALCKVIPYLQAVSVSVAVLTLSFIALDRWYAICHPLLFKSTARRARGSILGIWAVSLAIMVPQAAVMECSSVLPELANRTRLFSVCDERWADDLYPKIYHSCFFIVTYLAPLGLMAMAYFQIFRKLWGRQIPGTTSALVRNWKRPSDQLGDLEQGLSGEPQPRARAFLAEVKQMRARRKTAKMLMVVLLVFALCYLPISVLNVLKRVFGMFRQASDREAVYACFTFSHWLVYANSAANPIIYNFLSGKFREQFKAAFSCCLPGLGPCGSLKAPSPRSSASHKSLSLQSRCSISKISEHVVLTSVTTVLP
Description: (§1) Activation of the orexin receptors expressed in cell lines results in an increase in intracellular IP3 concentration. IP1, a downstream metabolite of IP3, accumulates in cells following receptor activation and is stable in the presence of LiCl. Using Homogeneous Time-Resolved Fluorescence technology with Lumi4-Tb cryptate (commercially available from Cisbio Bioassay.) and a suitable fluorescence plate reader. This functional response is detectable and quantifiable as described in Trinquet et al. Anal. Biochem. 2006, 358, 126-135, Degorce et al. Curr. Chem. Genomics 2009, 3, 22-32. This technique is used to characterize pharmacological modification of the orexin receptors.
A. In Vitro Testing of OX1R Potency: OX1R IP1
IP1 measurements are performed in CHO-K1 cells stably expressing the full-length human Orexin 1 receptor and the aequorin photoprotein. Cells are cultivated in Ham's nutrient mixture F12 medium with 10% fetal calf serum, in a 37° C., 95% humidity and 5% CO2 incubator. The CHO-K1/hOx1 cell mass is expanded to larger cell numbers. The cells are obtained as frozen cells in cryo-vials and stored until use at −150° C. The viability of the cells after thawing is >90%. In preparation for the assay, 24 hours before the assay, the cells are thawed at 37° C. and immediately diluted with cell culture medium. After centrifugation, the cell pellet is re-suspended in medium and then distributed into the assay plates with a density of 10000 cells/25 μL per well. The plates are incubated for one hour at room temperature to reduce edge effects before they are incubated for 24 hours at 37° C./5% CO2. Compounds are prepared by an 8-point serial dilution in DMSO and a final dilution step into assay buffer (HBSS with 20 mM HEPES, 0.1% BSA and 50 mM LiCl, pH 7.4) to ensure a final DMSO concentration of 1% in the assay.
On the day of the assay, cells in the plate are washed twice with 60 μL assay buffer (20 μL buffer remained in the wells after washing), followed by adding 5 μL per well of compounds diluted in assay buffer. After 15 minutes of incubation at room temperature 5 μL per well of Orexin A peptide (final concentration: 0.5 nM, and/or 50 nM) dissolved in assay buffer is added to the assay plate. The assay plate is incubated for 60 minutes at 37° C. Then 5 μl per well of Anti-IP1-Cryptate Tb solution and 5 μl per well of IP1-d2 dilution are added and the plate is incubated for a further 60 minutes light protected at room temperature. The emissions at 615 nm and 665 nm (Excitation wavelength: 320 nm) are measured using an EnVision reader (PerkinElmer). The ratio between the emission at 665 nm and 615 is calculated by the reader.
(§2) 8-point four parametric non-linear curve fitting and determination of IC50 values and Hill slopes is performed using a regular analysis software e.g. AssayExplorer (Accelrys). In order to establish an agonist concentration independent parameter, Kb values are calculated using the following equation: IC50/((2+(A/EC50)^n)^1/n−1) (with A=concentration agonist, EC50=EC50 agonist, n=Hill slope agonist) (see P. Leff, I. G. Dougall, Trends Pharmacol. Sci. 1993, 14(4),110-112).

human orexin 2 receptor = biological target: T3, human orexin 2 receptor (Homo sapiens, UniProt O43614); assay: Assay B: in vitro testing of OX2R potency, OX2R IP1; assay type: cell-based; conditions: 0.5 nM Orexin A concentration
T3 construct: stably expressing the full-length human orexin 2 receptor; expressed in transfected cells; host or cells: CHO-K1 (CHO-K1/hOx2), co-expressing aequorin
T3 sequence (O43614 1-444): T1 sequence (O43614 1-444)
Description: as §1
B. In Vitro Testing of OX2R Potency: OX2R IP1
IP1 measurements are performed in CHO-K1 cells stably expressing the full-length human orexin 2 receptor and the aequorin photoprotein. Cells are cultivated in Ham's nutrient mixture F12 medium with 10% fetal calf serum, in a 37° C., 95% humidity and 5% CO2 incubator. The CHO-K1/hOx2 cell mass is expanded to larger cell numbers. The cells are obtained as frozen cells in cryo-vials and stored until use at −150° C. The viability of the cells after thawing is >90%. In preparation for the assay, 24 hours before the assay, the cells are thawed at 37° C. and immediately diluted with cell culture medium. After centrifugation, the cell pellet is resuspended in medium and then distributed into the assay plates with a density of 5000 cells/25 μper well. The plates are incubated for one hour at room temperature to reduce edge effects before they are incubated for 24 hours at 37° C./5% CO2. Compounds are prepared by a 8-point serial dilution in DMSO and a final dilution step into assay buffer (HBSS with 20 mM HEPES, 0.1% BSA and 50 mM LiCl, pH 7.4) to ensure a final DMSO concentration of 1% in the assay. On the day of the assay, cells in the plate are washed twice with 60 μL assay buffer (20 μL buffer remained in the wells after washing), followed by adding 5 μL per well of compounds diluted in assay buffer. After 15 minutes of incubation at room temperature 5 μL per well of Orexin A peptide (final concentration: 0.5 nM) dissolved in assay buffer is added to the assay plate. The assay plate is incubated for 60 minutes at 37° C. Then 5 μl per well of Anti-IP1-Cryptate Tb solution and 5 μl per well of IP1-d2 dilution are added to all well of the plate and the plate is incubated for a further 60 minutes light protected at room temperature. The emission at 615 nm and 665 nm (Excitation wavelength: 320 nm) are measured using an EnVision reader (PerkinElmer). The ratio between the emission at 665 nm and 615 is calculated by the reader.
as §2

| SMILES | efflux ratio (human MDR1 P-gp) | OX2R pIC50 (OX2R; as described in WO2016/034882, Table 3) | IC50 (OX2R; corresponds to pIC50 of WO2016/034882, Table 3) | half-life at 1 μM [1] | Kb (human Orexin 1 receptor) | OX2R Kb/OX1R Kb (human Orexin 1 receptor) | Kb (human orexin 2 receptor) |
| --- | --- | --- | --- | --- | --- | --- | --- |
| CC[C@@H](CNc1ncc(C(F)(F)F)cn1)N(C)C(=O)c1nc(C)ccc1-c1ncccn1 [Ex 84 in WO2016/ 034882, reference compound] | < 3 |  |  |  |  |  |  |
| CC[C@@H](CNc1ncc(C(F)(F)F)cn1)N(C)C(=O)c1c(F)cccc1-n1nccn1 [Ex 91 in WO2016/ 034882] | < 3 | < 5.1 | ≥ 7.95 µM | > 130 min |  |  |  |
| C[C@@H](CNc1ncc(C(F)(F)F)cn1)N(CC(F)F)C(=O)c1cc(F)cc(F)c1-n1nccn1 [Example 1] | < 3 |  |  | > 130 min | 1.17 nM | 214 | 251 nM |
| C[C@@H](CNc1ncc(C(F)(F)F)cn1)N(CC(F)F)C(=O)c1cccc(F)c1-n1nccn1 [Example 2] | < 3 |  |  | > 130 min | 0.63 nM | 138 | 87.1 nM |
| C[C@@H](CNc1ncc(C(F)(F)F)cn1)N(CC(F)F)C(=O)c1cccc(F)c1-c1ncccn1 [Example 3] | < 3 |  |  | > 130 min | 0.19 nM | 568 | 108 nM |
| C[C@@H](CNc1ncc(C(F)(F)F)cn1)N(CC(F)F)C(=O)c1cc(F)ccc1-c1ncccn1 [Example 4] | < 3 |  |  | > 130 min | 0.42 nM | 169 | 70.8 nM |
| C[C@@H](CNc1ncc(C(F)(F)F)cn1)N(CC(F)F)C(=O)c1c(F)cccc1-c1ncccn1 [Example 5] | < 3 |  |  | > 130 min | 0.67 nM | 213 | 143 nM |
